In article PMC10525890, “Selective Inhibition of Cardiac Late Na^+ Current Is Based on Fast Offset Kinetics of the Inhibitor” (Biomedicines, 2023):
Where “and” joins values, the source holds several entries; their conditions need not be identical. Equal values may be shown once.

Tests used:
Nav1.5 = system: Nav1.5; set-up: method as in PMID 27136942, PMID 32938719; details: cited from earlier work
[1] = system: peak Na+ current (INaP) estimated as V+max; assay: Onset kinetics of V+max block during 2.5 Hz train after 1 min rest; assay type: cell-based, canine; details: initial 40 APs, 1 µM GS967, 20 µM mexiletine, 10 µM quinidine
Description: (§1) Right ventricular papillary muscles were applied for AP recordings using the conventional sharp microelectrode technique, as described previously. Membrane potential changes were recorded at 37 °C using sharp microelectrodes filled with 3 M KCl (tip resistance 10–20 MΩ) and connected to the input of an amplifier (MDE GmbH, Heidelberg, Germany). The preparations were stimulated with current pulses having durations of 1 ms and amplitudes of 200% diastolic threshold using a pair of platinum electrodes. Before starting the experiment, the preparations were paced at a cycle length of 1 s for at least 60 min allowing equilibration. After this period, the cycle length was sequentially changed between 0.3 and 5 s and the 25th AP was recorded at each cycle length. […] APs were sampled at 100 kHz with an ADA 3300 data acquisition board (Real Time Devices Inc., State Collage, PA, USA) and stored for later analysis.
The onset kinetics of drug action on V^+max were determined by stimulating the preparation at a short cycle length of 0.4 s following a 1 min period of rest and the initial 40 APs were recorded. The V^+max values of the consecutive APs were plotted as a function of the number of the AP within the train. The onset rate constant was determined by fitting the consecutive V^+max values to a monoexponential function.

Nav1.1 = system: Nav1.1; set-up: method as in PMID 31730442; details: cited from earlier work
Nav1.8 = details: stated in discussion, no reference given; cited from earlier work
late Na+ current (INaL) [2] = assay: INaL under conventional voltage clamp (2 s pulses to −20 mV from −120 mV) in isolated ventricular myocytes; assay type: cell-based, canine; details: for inhibition of INaL current integral: 1 µM GS967, 20 µM mexiletine, 10 µM quinidine; for inhibition of INaL density: at 50 ms, 1 µM GS967 (n = 6), 20 µM mexiletine (n = 5), 10 µM quinidine (n = 6); for INaL current integral (charge carried), post-drug: initial 20 ms excluded, 1 µM GS967 (pre-drug −69.1 ± 7.9), 20 µM mexiletine (pre-drug −68.6 ± 6.2), 10 µM quinidine (pre-drug −68.2 ± 11.7); for INaL density at 50 ms after start of pulse, post-drug: −20 mV from −120 mV, 1 µM GS967 (pre-drug −0.313 ± 0.035), 20 µM mexiletine (pre-drug −0.337 ± 0.035), 10 µM quinidine (pre-drug −0.333 ± 0.043)
Description: (§2) Single canine ventricular myocytes were isolated using a segment perfusion technique, as previously described. Briefly, the LAD coronary artery was cannulated and used for supplying solutions required for the dissociation of the individual cells with minimal injury. After dissection, the tissue was first perfused with a nominally Ca^2+-free solution (Minimum Essential Medium Eagle, Joklik Modification, Sigma-Aldrich Co., St. Louis, MO, USA) for 5 min in order to reduce the Ca^2+ load and also to promote the uncoupling of cell-to-cell junctions. Following this, the perfusate was supplemented with 1 mg/mL collagenase (Type II, final activity of 224 U/mL, Worthington Biochemical Co., Lakewood, NJ, USA) and 0.2% bovine serum albumin (Fraction V., Sigma) in the presence of 50 µM Ca^2+. This step was applied for 30 min to digest the collagen fibers in the extracellular matrix, resulting in the release of individual cells. […] The cells were kept at 15 °C before use, allowing normalization of their intracellular ionic composition. All chemicals applied in these experiments were purchased from Sigma-Aldrich Co. (St. Louis, MO, USA).
(§3) The cells, studied by an inverted microscope, were continuously superfused with a modified Tyrode at a rate of 1–2 mL/min. The modified Tyrode solution contained (in mM): NaCl: 121; KCl: 4; CaCl2: 1.3; MgCl2: 1; HEPES: 10; NaHCO3: 25; glucose: 10; pH: 7.35; osmolarity: 300 ± 3 mOsm. The temperature of this perfusate was set to 37 °C with a temperature controller (Cell MicroControls, Norfolk, VA, USA). Electrical signals were generated, amplified and recorded using a MultiClamp 700A or 700B amplifier under the control of pClamp 10 software (Molecular Devices, Sunnyvale, CA, USA) after analogue-to-digital conversion (Digidata 1440A or 1332, Molecular Devices). The electrodes were manufactured from borosilicate glass. The tip resistance of these micropipettes ranged between 2 and 3 MΩ when filled with pipette solution. Ion currents were recorded under whole-cell voltage clamp conditions. The series resistance was typically 4–8 MΩ. The measurement was discarded when the series resistance changed substantially during the experimental period.
Rectangular command pulses were applied in conventional voltage clamp experiments to study the effects on INaL at stable test potentials, as described previously. The cells were perfused with HEPES-buffered Tyrode solution containing (in mM): NaCl, 144; NaH2PO4, 0.4; KCl, 4.0; CaCl2, 1.8; MgSO4, 0.53; glucose, 5.5; HEPES, 5.0; at pH = 7.4. This solution contained 1 µM nisoldipine, 0.5 µM HMR-1556 and 0.1 µM dofetilide in order to block the Ca^2+ and K^+ currents. The pipette solution contained (in mM): CsCl, 125; TEACl, 20; MgATP, 5; EGTA, 10; HEPES, 10; at pH = 7.2. Test pulses of 2 s duration were clamped to −20 mV from the holding potential of −120 mV. The total amount of INaL was determined by pharmacological subtraction using a final superfusion with 20 µM TTX. The amplitude of INaL was determined at 50 ms following the start of the pulse. When measuring the charge carried by INaL (integral), the initial 20 ms of the current was excluded from evaluation to minimize the contamination with INaP.

Nav2.1 = details: stated in discussion, no reference given; cited from earlier work
[3] = system: peak Na+ current (INaP) estimated as V+max; assay: Steady-state V+max of action potential upstroke (indicator of INaP), right ventricular papillary muscle, sharp microelectrode; assay type: cell-based, canine; details: 1 µM GS967, 20 µM mexiletine, 10 µM quinidine; for V+max block: cycle length 700 ms; for cycle lengths at which V+max was significantly reduced: cycle lengths 0.3-5 s tested
Description: as §1

[4] = system: peak Na+ current (INaP) estimated as V+max; assay: Offset kinetics: restitution of V+max with extra stimuli after 1 Hz trains; assay type: cell-based, canine; details: monoexponential fit, basic cycle length 1 s; 1 µM GS967, 20 µM mexiletine
Description: as §1

late Na+ current (INaL) [5] = assay: INaL dissected by drug under action potential voltage clamp (APVC) in isolated ventricular myocytes; assay type: cell-based, canine; details: cycle length 700 ms, 37 °C, 1 µM GS967, 20 µM mexiletine, 10 µM quinidine, mean ± SEM
Description: as §2, §3
APVC experiments were performed according to the methods described previously. This technique allows for the visualization of various ion currents flowing during an actual ventricular AP by using a selective inhibitor of the respective ion current. In these experiments, therefore, a midmyocardial canine ventricular AP was applied as a command signal. The current traces were continuously recorded before and after a 5 min superfusion with the applied Na^+ channel inhibitor. The drug-sensitive current was obtained by subtracting the post-drug trace from the reference pre-drug trace. When measuring INaL, the external solution was supplemented with 1 µM nisoldipine, 1 µM E4031 and 100 µM chromanol 293B, in order to eliminate contaminations by Ca^2+ and K^+ currents. The pipette solution contained (in mM): K-aspartate, 120; KCl, 30; MgATP, 3; HEPES, 10; Na2-phosphocreatine, 3; EGTA, 0.01; cAMP, 0.002; KOH, 10; at pH = 7.3; osmolarity of 285 mOsm. The amplitude of INaL was measured at 50% duration of the APD90 value of the command AP. The initial 20 ms period following the AP upstroke was excluded from evaluation when determining the current integral in order to eliminate the contribution of INaP. A total of 20 consecutive current traces were averaged and analyzed in each experiment to reduce the noise and the trace-to-trace fluctuations of the AP configuration. Ion currents were normalized to cell capacitance, determined by applying a short (15 ms) hyperpolarizing pulse from +10 mV to −10 mV.

INaL over INaP = details: cited from earlier work

Row | SMILES | block of cardiac Nav1.5 channel isoform (Nav1.5) | onset rate constant of V+max block [1] | sensitivity of neuronal Nav1.1 (Nav1.1) | inhibition of Nav1.8 (Nav1.8) | inhibition of INaL current integral (late Na+ current (INaL) [2]) [%] | inhibition of INaL density (late Na+ current (INaL) [2]) [%] | INaL current integral (charge carried), post-drug (late Na+ current (INaL) [2]) [mC/F] | INaL density at 50 ms after start of pulse, post-drug (late Na+ current (INaL) [2]) [A/F] | inhibition of Nav2.1 (Nav2.1) | V+max block [3] [%] | cycle lengths at which V+max was significantly reduced [3] [ms] | offset time constant (recovery of V+max) [4] [ms] | drug-sensitive INaL current density measured at 50% duration of APD90 of the command AP (late Na+ current (INaL) [5]) [A/F] | drug-sensitive INaL current integral (initial 20 ms excluded) (late Na+ current (INaL) [5]) [mC/F] | selectivity for INaL over INaP (INaL over INaP) [fold]
1 | FC(F)(F)Oc1ccc(-c2ccc3nnc(C(F)(F)F)n3c2)cc1 [GS967] | strongly block | 6.4 ± 0.9 AP and 5.3±0.8 AP | sensitive | does not inhibit | 79.0 | 80.4 ± 2.2 | −15.4 ± 3.9 | −0.062 ± 0.01 | does not inhibit | 2.3 | < 500 | 110 ± 6 | −0.37 ± 0.07 | −56.7 ± 9.1 | 
2 | CCCCc1oc2ccccc2c1C(=O)c1cc(I)c(OCCN(CC)CC)c(I)c1 [amiodarone] |  |  |  |  |  |  |  |  |  |  |  |  |  |  | 13
3 | O=C(NCC1CCCCN1)c1cc(OCC(F)(F)F)ccc1OCC(F)(F)F (stereo not drawn) [flecainide] |  |  |  |  |  |  |  |  |  |  |  |  |  |  | 3
4 | Cc1cccc(C)c1OCC(C)N (stereo not drawn) [mexiletine] |  | 3.4 ± 0.4 AP |  |  | 46.1 | 41.9 ± 3.7 | −37.0 ± 4.7 | −0.197 ± 0.026 |  | 11.4 | < 700 | 456 ± 284 | −0.375 ± 0.07 | −65.2 ± 11.5 | 
5 | C=C[C@H]1C[N@@]2CC[C@H]1C[C@@H]2[C@@H](O)c1ccnc2ccc(OC)cc12 [quinidine] |  |  |  |  | 37.1 | 43.3 ± 2.2 | −42.9 ± 9.2 | −0.186 ± 0.02 |  |  |  |  | −0.377 ± 0.06 | −61.2 ± 8.8 | 
6 | COc1ccccc1OCC(O)CN1CCN(CC(=O)Nc2c(C)cccc2C)CC1 (stereo not drawn) [ranolazine] |  |  |  |  |  |  |  |  |  |  |  |  |  |  | 38
